The record followed here is patent US9174980B2, “Heterocyclic compounds as inhibitors of leukotriene production” (Boehringer Ingelheim International GmbH, priority 2012, dated 2015).

Assay [1] concerns synthesis of LTB4 in human whole blood. As to the kind of experiment: Human whole blood assay (calcimycin-stimulated LTB4 synthesis). Format: cell-based. The conditions noted are these: Homo sapiens; read-out: Human Whole Blood LTB4 Assay for FLAP (IC50 nM). The method, boiled down:
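LTB4 in plasma was quantified by HTRF immunoassay. Before that, compound-treated heparinized whole blood (15 min, 37 °C) received 20 μM final calcimycin for a further 30 min at 37 °C, followed by centrifugation at 1500×g.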

For assay [2], the target named is T1, recombinant human FLAP protein (Homo sapiens, UniProt P20292).
T1 construct: made in house; host or cells: Sf9 insect cells (membrane fraction, 100,000 x g pellet)
T1 sequence (P20292 1-161): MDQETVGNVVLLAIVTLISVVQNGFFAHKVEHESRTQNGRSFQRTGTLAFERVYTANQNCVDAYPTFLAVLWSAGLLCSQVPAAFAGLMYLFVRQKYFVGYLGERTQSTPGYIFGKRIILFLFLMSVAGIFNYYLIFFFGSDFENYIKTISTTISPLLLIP
The assay can be described thus: FLAP binding assay (Scintillation Proximity Assay, displacement of [125I]L-691,831). To be noted: read-out: Human FLAP SPA Binding (IC50 nM). The method, boiled down: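 Membranes from sf9 cells expressing recombinant human FLAP (5 μg/well) on WGA SPA beads were incubated with compound and 0.08 nM [125I]L-691,831 in Tris pH 7.5 binding buffer, shaken 2 h. Displacement read by scintillation proximity; non-specific binding set with 10 μM unlabelled L-691,831.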

Molecules are shown by their SMILES.

With `Nc1ncc(-c2ccc(C3(c4c[nH]c5ncccc45)CCC3)cc2)cn1` [Example 103, 5-{4-[1-(1H-pyrrolo[2,3-b]pyridin-3-yl)cyclobutyl]phenyl}pyrimidin-2-amine], the IC50 in assay [1] was 160 nM; in assay [2], 2.5 nM.
In the same order, the values of `COC(=O)c1[nH]c2ccccc2c1C1(c2ccc(-c3cnc(N)nc3)cc2)CCC1` [Example 165, methyl 3-{1-[4-(2-aminopyrimidin-5-yl)phenyl]cyclobutyl}-1H-indole-2-carboxylate] are 160 nM and 6.1 nM.
For `CC(C)C(C)(c1ccc(-c2cnc(N)nc2)cc1)c1cn(CC(=O)O)c2ncccc12` (centres unmarked) [Example 47, (3-{2-[4-(2-aminopyrimidin-5-yl)phenyl]-3-methylbutan-2-yl}-1H-pyrrolo[2,3-b]pyridin-1-yl)acetic acid], in that order: more than 5000 nM and 4.6 nM.
In the same order, the values of `COCCNC(=O)c1[nH]c2ccccc2c1C1(c2ccc(-c3cnc(N)nc3)cc2)CCC1` [Example 193] are 450 nM and 7.9 nM.
Consider `COC(=O)Cn1cc(C2(c3ccc(-c4cnc(N)nc4)cc3)CCC2)c2ccccc21` [Example 123, methyl (3-{1-[4-(2-aminopyrimidin-5-yl)phenyl]cyclobutyl}-1H-indol-1-yl)-acetate], for which the results for the IC50 in assay [1] and in assay [2] were more than 5000 nM and 7.9 nM, respectively.
In the case of `CC(C)C(C)(c1ccc(-c2cnc(N)nc2)cc1)c1cn(Cc2ccccn2)c2ccccc12` (centres unmarked) [Example 28, 5-(4-{3-methyl-2-[1-(pyridin-2-ylmethyl)-1H-indol-3-yl]butan-2-yl}phenyl)pyrimidin-2-amine], the results for the IC50 in assay [1] and in assay [2] were 610 nM and 3.3 nM, respectively.
In the same order, the values of `COCC(C)(c1ccc(-c2cnc(N)nc2)cc1)c1cn(C)c2ncccc12` (centres unmarked) [Example 56, 5-{4-[1-methoxy-2-(1-methyl-1H-pyrrolo[2,3-b]pyridin-3-yl)propan-2-yl]phenyl}pyrimidin-2-amine] are more than 5000 nM and 160 nM.
For the molecule `Nc1ncc(-c2ccc(C3(c4c[nH]c5cc(C(=O)N6CCC(O)C6)ccc45)CCC3)cc2)cn1` (centres unmarked) [Example 106, (3-{1-[4-(2-aminopyrimidin-5-yl)phenyl]cyclobutyl}-1H-indol-6-yl)(3-hydroxypyrrolidin-1-yl)methanone], the IC50 in assay [1] came out at 4100 nM; in assay [2] it was 0.91 nM.
For `Cc1ccc(-c2nnc(C3(c4ccc(-c5cnc(N)nc5)cc4)CCC3)[nH]2)cn1` [Example 129, 5-(4-{1-[5-(6-methylpyridin-3-yl)-4H-1,2,4-triazol-3-yl]cyclobutyl}phenyl)pyrimidin-2-amine], in that order: 4000 nM and 7.6 nM.
For `CC(C)C(C)(c1ccc(-c2cnc(N)nc2)cc1)c1c[nH]c2cc(F)c(F)cc12` (centres unmarked) [Example 67, 5-{4-[2-(5,6-difluoro-1H-indol-3-yl)-3-methylbutan-2-yl]phenyl}pyrimidin-2-amine], in that order: 340 nM and 3 nM.
For `CN1CCN(C(=O)c2cccc3c(C4(c5ccc(-c6cnc(N)nc6)cc5)CCC4)c[nH]c23)CC1` [Example 146], in that order: 310 nM and 1.7 nM.
For `Cc1cc2c(C3(c4ccc(-c5cnc(N)nc5)cc4)CCC3)c[nH]c2cn1` [Example 141, 5-{4-[1-(5-methyl-1H-pyrrolo[2,3-c]pyridin-3-yl)cyclobutyl]phenyl}pyrimidin-2-amine], the IC50 in assay [1] was 350 nM; in assay [2], 5.8 nM.
In the case of `CC(C)C(C)(c1ccc(-c2ccc(N)nc2)cc1)c1c[nH]c2cc(-c3nnc(N)o3)ccc12` (centres unmarked) [Example 71, 5-(4-{2-[6-(5-amino-1,3,4-oxadiazol-2-yl)-1H-indol-3-yl]-3-methylbutan-2-yl}phenyl)pyridin-2-amine], the values for the IC50 in assay [1] and in assay [2] were 1900 nM and 0.72 nM, respectively.
For `Nc1ncc(-c2ccc(C3(c4cn(CCOCCO)c5ccccc45)CCC3)cc2)cn1` [Example 120, 2-[2-(3-{1-[4-(2-aminopyrimidin-5-yl)phenyl]cyclobutyl}-1H-indol-1-yl)ethoxy]ethanol], the IC50 in assay [1] was more than 5000 nM; in assay [2] it was 4.7 nM.
For `Cc1ccc(-c2cc(C(C)(c3ccc(-c4cnc(N)nc4)nc3)C(C)C)[nH]n2)cn1` (centres unmarked) [Example 160, 5-(5-{3-methyl-2-[5-(6-methylpyridin-3-yl)-1H-pyrazol-3-yl]butan-2-yl}pyridin-2-yl)pyrimidin-2-amine], in that order: 1400 nM and 8.4 nM.
For `CC(C)(O)Cn1cc(-c2coc([C@](C)(c3ccc(-c4cnc(N)nc4)cc3)C3CC3)n2)cn1` [Example 204, 1-[4-(2-{(S)-1-[4-(2-Amino-pyrimidin-5-yl)-phenyl]-1-cyclopropyl-ethyl}-oxazol-4-yl)-pyrazol-1-yl]-2-methyl-propan-2-ol], in that order: 1500 nM and 560 nM.
For `COCCNC(=O)c1cccc2c(C3(c4ccc(-c5cnc(N)nc5)cc4)CCC3)c[nH]c12` [Example 159], in that order: 43 nM and 1.9 nM.
`CN(C)CCn1cc(-c2cc([C@](C)(c3ccc(-c4cnc(N)nc4)cc3)C3CC3)no2)cn1` [Example 30, 5-{4-[(1S)-1-cyclopropyl-1-(5-{1-[2-(dimethylamino)ethyl]-1H-pyrazol-4-yl}-1,2-oxazol-3-yl)ethyl]phenyl}pyrimidin-2-amine]: the IC50 came out at 1200 nM in assay [1] and 330 nM in assay [2].
As to `Nc1ncc(-c2ccc(C3(c4c[nH]c5c(=O)[nH]ccc45)CCC3)cc2)cn1` [Example 155], the IC50 came out at 370 nM in assay [1] and 2.5 nM in assay [2].
On to `Cn1cc(-c2coc([C@](C)(c3ccc(-c4cnc(N)nc4)nc3)C3CC3)n2)cn1` [Example 208, 5-(5-{(S)-1-Cyclopropyl-1-[4-(1-methyl-1H-pyrazol-4-yl)-oxazol-2-yl]-ethyl}-pyridin-2-yl)-pyrimidin-2-ylamine], for which the IC50 in assay [1] was 1300 nM; in assay [2], more than 2000 nM.
For `Cn1cc(C(c2ccc(-c3cnc(N)nc3)cn2)C(C)(C)C)c2ccccc21` (centres unmarked) [Example 156, 5-{6-[2,2-dimethyl-1-(1-methyl-1H-indol-3-yl)propyl]pyridin-3-yl}pyrimidin-2-amine], in that order: more than 5000 nM and 260 nM.
In the same order, the values of `Nc1ncc(-c2ccc(C3(c4c(-c5ccc(F)cc5)[nH]c5ccccc45)CCC3)cc2)cn1` [Example 163, 5-(4-{1-[2-(4-fluorophenyl)-1H-indol-3-yl]cyclobutyl}phenyl)pyrimidin-2-amine] are 590 nM and 5.7 nM.
In the case of `Cc1[nH]c2ccccc2c1C(C)(c1ccc(-c2cnc(N)nc2)cc1)C(C)C` (centres unmarked) [Example 86, 5-{4-[3-methyl-2-(2-methyl-1H-indol-3-yl)butan-2-yl]phenyl}pyrimidin-2-amine], the IC50 in assay [1] was 230 nM; in assay [2] it was 1.4 nM.
Regarding `CC(C)(O)Cn1cc(-c2cnc(C(C)(c3ccc(-c4cnc(N)nc4)nc3)C3CC3)s2)cn1` (centres unmarked) [Example 212, 1-[4-(2-{1-[6-(2-Amino-pyrimidin-5-yl)-pyridin-3-yl]-1-cyclopropyl-ethyl}-thiazol-5-yl)-pyrazol-1-yl]-2-methyl-propan-2-ol], the values for the IC50 in assay [1] and in assay [2] were 410 nM and 130 nM, respectively.
In the same order, the values of `Cc1ccc(-c2csc(C3(c4ccc(-c5cnc(N)nc5)cc4)CCC3)n2)cn1` [Example 157, 5-(4-{1-[4-(6-methylpyridin-3-yl)-1,3-thiazol-2-yl]cyclobutyl}phenyl)pyrimidin-2-amine] are 2600 nM and 16 nM.
For `Nc1ncc(-c2ccc(C3(c4c[nH]c5c(C(=O)O)cccc45)CCC3)cc2)cn1` [Example 150, 3-{1-[4-(2-aminopyrimidin-5-yl)phenyl]cyclobutyl}-1H-indole-7-carboxylic acid], in that order: more than 5000 nM and 1.5 nM.
For `COc1cccc2[nH]cc(C(C)(c3ccc(-c4cnc(N)nc4)cc3)C(C)C)c12` (centres unmarked) [Example 57, 5-{4-[2-(4-methoxy-1H-indol-3-yl)-3-methylbutan-2-yl]phenyl}pyrimidin-2-amine], in that order: 2600 nM and 37 nM.
For the molecule `COC(=O)c1ccc2c(C(C)(c3ccc(-c4cnc(N)nc4)cc3)C(C)C)c[nH]c2c1` (centres unmarked) [Example 70, methyl 3-{2-[4-(2-aminopyrimidin-5-yl)phenyl]-3-methylbutan-2-yl}-1H-indole-6-carboxylate], the IC50 came out at 240 nM in assay [1] and 0.9 nM in assay [2].
Regarding `CC(C)C(C)(c1ccc(-c2cnc(N)nc2)nc1)c1cc(-c2cnn(C)c2)on1` (centres unmarked) [Example 161, 5-(5-{3-methyl-2-[5-(1-methyl-1H-pyrazol-4-yl)-1,2-oxazol-3-yl]butan-2-yl}pyridin-2-yl)pyrimidin-2-amine], the IC50 was 160 nM in assay [1] and 8.2 nM in assay [2].
In the same order, the values of `Nc1ncc(-c2ccc(C3(c4cccn4S(=O)(=O)c4ccccc4)CCC3)cc2)cn1` [Example 169, 5-(4-{1-[1-(phenylsulfonyl)-1H-pyrrol-2-yl]cyclobutyl}phenyl)pyrimidin-2-amine] are 2000 nM and 110 nM.
For `CC(C)C(C)(c1ccc(-c2cnc(N)nc2)cc1)c1c[nH]c2cc(-c3nnn[nH]3)ccc12` (centres unmarked) [Example 68, 5-(4-[3-methyl-2-[6-(1H-tetrazol-5-yl)-1H-indol-3-yl]butan-2-yl}phenyl)pyrimidin-2-amine], in that order: more than 5000 nM and 1 nM.
